How the values were obtained:
[1] = target: T1, cytochrome P450 2C9 (CYP2C9) (Homo sapiens, UniProt P11712); assay: amperometric titration (KM) on CYP2C9 + FMN electrode; […]'-hydroxydiclofenac formation by square-wave voltammetry; type: biochemical
[2] = target: T1, cytochrome P450 2C9 (CYP2C9); assay: UV-vis absorption spectral titration (Soret peak) of purified recombinant CYP2C9; also electrochemical activation; type: binding
[3] = target: T1, cytochrome P450 2C9 (CYP2C9); assay: electrochemical diclofenac […]'-hydroxylation by purified CYP2C9 with FMN ([…]); relative activity […]; type: biochemical

T1 sequence (P11712 whole entry): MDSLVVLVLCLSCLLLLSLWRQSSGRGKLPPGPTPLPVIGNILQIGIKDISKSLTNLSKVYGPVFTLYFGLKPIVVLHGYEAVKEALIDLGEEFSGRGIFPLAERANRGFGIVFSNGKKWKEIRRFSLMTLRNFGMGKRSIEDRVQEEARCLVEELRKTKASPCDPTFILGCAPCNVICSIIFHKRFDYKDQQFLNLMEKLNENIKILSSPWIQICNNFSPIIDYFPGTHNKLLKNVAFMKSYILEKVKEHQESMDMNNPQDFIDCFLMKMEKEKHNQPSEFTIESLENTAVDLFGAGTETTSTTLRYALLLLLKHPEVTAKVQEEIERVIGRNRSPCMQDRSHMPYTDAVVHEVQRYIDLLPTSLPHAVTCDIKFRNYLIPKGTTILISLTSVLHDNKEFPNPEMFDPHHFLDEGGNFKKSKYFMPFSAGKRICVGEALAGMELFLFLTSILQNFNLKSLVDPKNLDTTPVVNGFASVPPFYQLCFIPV

O=C(O)Cc1ccccc1Nc1c(Cl)cccc1Cl [diclofenac, 2-[2-(2,6-dichloroanilino)-phenyl]acetic acid]
KM, M [1]: (5.49 ± 0.52) ×10^−5 M

Cc1cc2nc3c(=O)[nH]c(=O)nc-3n(C[C@H](O)[C@H](O)[C@H](O)COP(=O)(O)OP(=O)(O)OC[C@H]3O[C@@H](n4cnc5c(N)ncnc54)[C@H](O)[C@@H]3O)c2cc1C [FAD]
Kd [2]: 174 ± 52 µM

Cc1cc2nc3c(=O)[nH]c(=O)nc-3n(C[C@H](O)[C@H](O)[C@H](O)COP(=O)(O)O)c2cc1C [FMN]
Relative Activity, % [3]: 113 ± 6%

Source: PMC12472352, “The Activation of Cytochrome P450 2C9 Is Facilitated by the Coenzyme Forms of Vitamin B2” (Molecules, 2025)
